Literature values as cited in US12083078B2, “Parenteral cannabinoid formulations and uses thereof” (priority 2020, dated 2024).

Conditions: buffering pH range

Row | Compound | pH range
1 | CC(=O)O [Acetic Acid] | 4-6
2 | O=C(O)CC(O)(CC(=O)O)C(=O)O [Citric Acid] | 3-7
3 | CC(O)C(=O)O (stereo not shown) [Lactic Acid] | 3-4.5
4 | O=P(O)(O)O [Sodium Phosphate] | 8-8
